Laboratory results from paper PMC8134483 (Scientific Reports, 2021).
Where two headings read alike, the source gives them in different places.

Experiments:
hCB1R [1] = target: T1, hCB1R (Homo sapiens, UniProt P21554); assay: CB1R bias analysis (operational model, cAMP inhibition vs βarrestin2); assay type: cell-based
T1 construct: expressed in transfected cells; host or cells: CHO-K1
Experimental: (§1) Estimates of Ki, EC50, Emin, and Emax were determined using non-linear regression with variable slope (four parameters) (GraphPad, Prism, v. 8.0). […] One-way analysis of variance (ANOVA), followed by Tukey’s post-hoc test, was used for statistical analyses (p < 0.05 determined to be significant); and Bartlett’s test was used to confirm homogeneity of variance (GraphPad).

hCB1R [2] = target: T1, hCB1R; assay: biochemical; assay type: binding
male C57Bl/6 mice [3] = assay: Catalepsy, ring holding assay; assay type: in vivo; settings: 0.1–10 mg/kg i.p.; 5 min; % MPE 60 s
Experimental: (§2) Adult male C57BL/6 mice aged 6–10 weeks (mean weight 24 ± 0.5 g) were purchased from Charles River Labs (Senneville, QC). Animals were group housed (three per cage) with ad libitum access to food, water, and environmental enrichment and maintained on a 12 h light/dark cycle. Mice were randomly assigned to receive i.p. injections of vehicle (1:1:18 ethanol:emulphor:saline) or 0.1–10 mg/kg SCRA (n ≥ 4 per group). All protocols have been described previously and were in accordance with the guidelines detailed by the Canadian Council on Animal Care and approved by the Animal Research Ethics Board and the Scientific Merit Review Committee for Animal Behaviour at the University of Saskatchewan. […]
(§3) Modified tetrad testing (catalepsy, body temperature, tail flick assay) was conducted according to previously described methods, which are summarized briefly here. […] Catalepsy was assessed in the ring holding assay 5 min following injection with mouse forepaws clasped to a 5 mm ring positioned 5 cm above the surface of the testing space. The length of time the ring was held was recorded (s) to a maximum time of 60 s (i.e. MPE = 60 s). Internal body temperature was measured 15 min after injection. Anti-nociception was determined by assessing tail flick latency 20 min after injection. […]

hCB1R [4] = target: T1, hCB1R; assay: cell-based; assay type: cell-based
male C57Bl/6 mice [5] = assay: Internal body temperature; assay type: in vivo; settings: 0.1–10 mg/kg i.p.; 15 min
Experimental: as §2, §3

hCB2R [6] = target: T2, hCB2R (Homo sapiens, UniProt P34972); assay: [^3H]CP55,940 competition (radioligand displacement) binding to CB2R
T2 construct: host or cells: CHO-K1 (PathHunter)
T2 sequence (P34972 whole entry): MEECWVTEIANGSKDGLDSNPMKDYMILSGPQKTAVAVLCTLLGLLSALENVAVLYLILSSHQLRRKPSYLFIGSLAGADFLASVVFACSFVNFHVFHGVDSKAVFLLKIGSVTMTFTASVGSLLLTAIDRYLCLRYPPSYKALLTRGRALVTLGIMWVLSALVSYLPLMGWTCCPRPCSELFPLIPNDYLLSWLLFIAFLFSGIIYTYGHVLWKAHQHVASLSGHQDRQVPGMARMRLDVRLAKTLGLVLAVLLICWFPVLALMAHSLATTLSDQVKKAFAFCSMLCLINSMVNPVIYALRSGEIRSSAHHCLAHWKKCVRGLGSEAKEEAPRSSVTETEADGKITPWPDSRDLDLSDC

hCB1R [7] = target: T1, hCB1R; assay: cell-based; assay type: cell-based; remark: listed apart in the source
hCB2R [8] = target: T2, hCB2R; assay: PathHunter βarrestin2 recruitment, CB2R; assay type: cell-based
hCB2R [9] = target: T2, hCB2R; assay: HitHunter inhibition of FSK-stimulated cAMP, CB2R; assay type: cell-based
male C57Bl/6 mice [10] = assay: Elevated plus maze (EPM); assay type: in vivo; settings: 1.0 mg/kg i.p., 30 min after treatment, 5 min trial
Experimental: Adult male C57BL/6 mice aged 6–10 weeks (mean weight 24 ± 0.5 g) were purchased from Charles River Labs (Senneville, QC). Animals were group housed (three per cage) with ad libitum access to food, water, and environmental enrichment and maintained on a 12 h light/dark cycle. Mice were randomly assigned to receive i.p. injections of vehicle (1:1:18 ethanol:emulphor:saline) or 0.1–10 mg/kg SCRA (n ≥ 4 per group). All protocols have been described previously and were in accordance with the guidelines detailed by the Canadian Council on Animal Care and approved by the Animal Research Ethics Board and the Scientific Merit Review Committee for Animal Behaviour at the University of Saskatchewan. The following steps were taken to ensure our study was in keeping with the ARRIVE guidelines: (1) power analyses were conducted to determine the minimum number of animals required for the study; (2) animals were purchased—rather than bred—to limit animal waste; and (3) all assessments of animal behaviour were made by individuals blinded to the treatment group,[57].
EPM was conducted according to methods adapted from Marks et al.. The EPM was built from a plywood base painted blue with blue corrugated plastic floor and walls. The floor of the maze was composed of perpendicular interlocking arms (110 cm long × 10 cm wide) with two arms having 45 cm walls (closed arms) and two arms having no walls and a 0.5 cm edge (open arms), all elevated 45 cm from the ground. Trials began with the mouse in the central zone facing an open arm. Trials lasted 5 min and began 30 min after SCRA treatment. An arm entry was considered to be all four limbs leaving the central zone. Arm entries and the percent time spent in open versus closed arms were recorded by an observer blinded to the treatment group. Less time in the open arms and more time in the closed arms was used as a model of anxiogenic behaviour.

male C57Bl/6 mice [11] = assay: Anti-nociception, tail flick assay; assay type: in vivo; settings: 0.1–10 mg/kg i.p.; 20 min; 52 °C; % MPE 20 s
Experimental: as §2, §3

hCB2R [12] = target: T2, hCB2R; assay: CB2R bias analysis (operational model, cAMP inhibition vs βarrestin2); assay type: cell-based; settings: CP55,940 as reference agonist; >0 cAMP bias, <0 βarrestin2 bias
Experimental: as §1

[13] = bottom of the concentration–response curve, mean ± SEM

T1 sequence (P21554 whole entry): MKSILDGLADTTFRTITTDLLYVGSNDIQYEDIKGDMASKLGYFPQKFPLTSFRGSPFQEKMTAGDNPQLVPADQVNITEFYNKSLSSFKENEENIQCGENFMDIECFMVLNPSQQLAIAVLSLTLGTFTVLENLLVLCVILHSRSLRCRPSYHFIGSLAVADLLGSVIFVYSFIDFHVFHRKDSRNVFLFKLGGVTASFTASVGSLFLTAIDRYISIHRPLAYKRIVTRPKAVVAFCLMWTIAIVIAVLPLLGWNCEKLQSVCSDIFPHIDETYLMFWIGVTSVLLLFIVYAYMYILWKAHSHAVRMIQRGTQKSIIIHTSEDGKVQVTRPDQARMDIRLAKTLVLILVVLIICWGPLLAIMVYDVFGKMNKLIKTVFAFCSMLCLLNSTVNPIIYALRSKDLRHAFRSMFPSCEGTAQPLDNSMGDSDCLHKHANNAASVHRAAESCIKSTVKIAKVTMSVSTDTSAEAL

COC(=O)[C@@H](NC(=O)c1nn(CCCCF)c2ccccc12)C(C)(C)C [4-fluoro MDMB-BINACA]
CB1R bias between cAMP inhibition and βarrestin2 recruitment, ∆∆LogR (cAMP—βarr2), in words (hCB1R [1]; CP55,940 as reference agonist, >0 cAMP bias, <0 βarrestin2 bias): significant bias toward the recruitment of βarrestin2
Observed CB1R bias in cell culture (hCB1R [1]; cAMP inhibition vs βarrestin2): βarrestin2
Ki (hCB1R [2]): 99 nM
CB1R versus CB2R selectivity, receptor affinity (hCB1R [2]; CB1R vs CB2R [^3H]CP55,940 binding): greater affinity at CB2R relative to CB1R
CB1R [^3H]CP55,940 Emin (hCB1R [2]; [13]): 52 ± 7.5 %
Catalepsy response (male C57Bl/6 mice [3]): full agonist
EC50 (hCB1R [4]; CHO hCB1R, 90 min, value with 95% CI, read-out: CB1R βarrestin2 recruitment EC50): 88 nM
Emax (hCB1R [4]; read-out: CB1R βarrestin2 recruitment Emax): 240 ± 10%
βarrestin2 recruitment to CB1R, activity in words (hCB1R [4]; relative to CP55940): greater potency and produced supramaximal EMax responses
Body temperature (hypothermia) response (male C57Bl/6 mice [5]): full agonist
Affinity for CB2R compared with CP55,940, in words (hCB2R [6]): significantly greater affinity
Ki (hCB2R [6]): 0.41 nM
CB2R [^3H]CP55,940 Emin (hCB2R [6]; [13]): 57 ± 11 %
EC50 (hCB1R [7]; CHO hCB1R, 10 µM FSK, 90 min, value with 95% CI, read-out: CB1R cAMP Inhibition EC50): 10 nM
Emax (hCB1R [7]; read-out: CB1R cAMP Inhibition Emax): 87 ± 5.6%
EC50 (hCB2R [8]): 120 nM
Emax (hCB2R [8]): 130 ± 8.2%
βarrestin2 recruitment to CB2R, activity in words (hCB2R [8]; relative to CP55,940): greater potency and produced supramaximal EMax responses
EC50 (hCB2R [9]): 0.56 nM
Emax (hCB2R [9]): 95 ± 11%
EPM time in the central quadrant (male C57Bl/6 mice [10]): majority of their time in the central quadrant immobile
EPM time in the open arms (male C57Bl/6 mice [10]): approximately the same amount of time in the open arm as vehicle-treated mice
EPM total arm entries (male C57Bl/6 mice [10]; vs vehicle): reduced total arm entries
Anti-nociceptive response, tail flick (male C57Bl/6 mice [11]): full agonist
CB2R bias between cAMP inhibition and βarrestin2 recruitment, ∆∆LogR (cAMP—βarr2), in words (hCB2R [12]): significant bias toward the recruitment of βarrestin2
